Experiments:
Test in all cases: normalised viability (% of control), CellTiter-Blue; higher = more viable cells (about 100 = DMSO control)
HCC1143 [1] = details: incubation time: 72 h
Procedure, shortened: (§1)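 384-well plates were pre-loaded with compound in 5 µl medium before 20 µl of breast cancer cell suspension was seeded. Following 72 h incubation, 2.5 µl CellTiter-Blue reagent was added for 2 h at 37 °C. Fluorescence was read at 560/590 nm and plates were normalised to vehicle (100) and a positive kill control (0), checked by Z'-factor. Normalised viability is reported at a single listed concentration of the series.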

MDA-MB-453 [2] = details: incubation time: 72 h
Procedure, shortened: as §1

SK-BR-3 [3] = details: incubation time: 72 h
Procedure, shortened: as §1

BT-474 [4] = details: incubation time: 72 h
Procedure, shortened: as §1

DU-4475 [5] = details: incubation time: 72 h
Procedure, shortened: as §1

MDA-MB-468 [6] = details: incubation time: 72 h
Procedure, shortened: as §1

CAL-148 [7] = details: incubation time: 72 h
Procedure, shortened: as §1

CAL-51 [8] = details: incubation time: 72 h
Procedure, shortened: as §1

MFM-223 [9] = details: incubation time: 72 h
Procedure, shortened: as §1

MDA-MB-231 [10] = details: incubation time: 72 h
Procedure, shortened: as §1

HCC1599 [11] = details: incubation time: 72 h
Procedure, shortened: as §1

HCC1937 [12] = details: incubation time: 72 h
Procedure, shortened: as §1

HCC1143 [13] = details: 100 nM; incubation time: 72 h
Protocol: (§2)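 DSRT, CellTiter-Blue viability, 72 h incubation. Signal is normalised to DMSO and benzethonium chloride controls. Value is the normalised response at dose 3.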

MDA-MB-436 = details: 100 nM; incubation time: 72 h
Protocol: as §2

Hs578T = details: 100 nM; incubation time: 72 h
Protocol: as §2

MDA-MB-453 [14] = details: 10 nM; incubation time: 72 h
Protocol: as §2

SK-BR-3 [15] = details: 100 nM; incubation time: 72 h
Protocol: as §2

HDQ-P1 = details: 10 nM; incubation time: 72 h
Protocol: as §2

BT-474 [16] = details: 100 nM; incubation time: 72 h
Protocol: as §2

DU-4475 [17] = details: 10 nM; incubation time: 72 h
Protocol: as §2

CAL-85-1 = details: 10 nM; incubation time: 72 h
Protocol: as §2

MDA-MB-468 [18] = details: 100 nM; incubation time: 72 h
Protocol: as §2

CAL-148 [19] = details: 10 nM; incubation time: 72 h
Protocol: as §2

BT-549 = details: 100 nM; incubation time: 72 h
Protocol: as §2

CAL-51 [20] = details: 10 nM; incubation time: 72 h
Protocol: as §2

CAL-120 = details: 100 nM; incubation time: 72 h
Protocol: as §2

MFM-223 [21] = details: 100 nM; incubation time: 72 h
Protocol: as §2

MDA-MB-231 [22] = details: 100 nM; incubation time: 72 h
Protocol: as §2

HCC1599 [23] = details: 100 nM; incubation time: 72 h
Protocol: as §2

HCC1937 [24] = details: 100 nM; incubation time: 72 h
Protocol: as §2

CNC(=O)c1ccccc1Sc1ccc2c(/C=C/c3ccccn3)n[nH]c2c1 [Axitinib]
normalised viability [%]
Details	3 nM	10 nM	30 nM	100 nM	1000 nM	10000 nM
BT-474 [4]	–	112	–	–	105	76.4
CAL-51 [8]	107	–	102	98.2	–	–
CAL-148 [7]	83	–	95.3	90.1	–	–
DU-4475 [5]	107	–	114	97	–	–
HCC1143 [1]	–	89.9	–	–	96.2	57.2
HCC1599 [11]	–	105	–	–	84.8	62
HCC1937 [12]	–	41.1	–	–	81.8	42.6
MDA-MB-231 [10]	–	102	–	–	88.7	72.1
MDA-MB-453 [2]	103	–	108	97.2	–	–
MDA-MB-468 [6]	–	108	–	–	99.4	43.8
MFM-223 [9]	–	86.7	–	–	47.6	47.7
SK-BR-3 [3]	–	91	–	–	88.9	63.8

Details	normalised viability [%]
BT-474 [16]	114
BT-549	113
CAL-51 [20]	107
CAL-85-1	96
CAL-120	96.8
CAL-148 [19]	98
DU-4475 [17]	113
HCC1143 [13]	101
HCC1599 [23]	89.7
HCC1937 [24]	118
HDQ-P1	100
Hs578T	73.2
MDA-MB-231 [22]	102
MDA-MB-436	70
MDA-MB-453 [14]	104
MDA-MB-468 [18]	101
MFM-223 [21]	82.6
SK-BR-3 [15]	58.8

— the supplement of paper PMC4862054
